Experimental data published in patent US20140004182A1, “METHODS FOR THE TREATMENT OF SARCOIDOSIS” (priority 2009, published 2014).

Experiments:
[1] = system: Phosphodiesterase 4 enzyme purified from U937 human monocytic cells; experiment: Inhibition of PDE4 (phosphodiesterase reaction with [3H]-cAMP); assay type: biochemical; conditions: 1 μM cAMP plus 10 nM [3H]-cAMP, 45 min at 30° C., pH 7.5
Experimental: Phosphodiesterase 4 enzyme was purified from U937 human monocytic cells by gel filtration chromatography, and phosphodiesterase reactions were carried out as previously described. See, e.g., Muller et al., Bioorg. Med. Chem. Lett., 1998, 8(19): 2669-2674. Briefly, reactions were carried out in 96-well deep-well plates in 50 mM Tris HCl pH 7.5, 5 mM MgCl2, 1 μM cyclic adenosine monophosphate (cAMP), plus 10 nM [^3H]-cAMP for 45 min at 30° C. The reactions were terminated by boiling, treated with 1 mg/ml snake venom, and separated using AG-1X8 ion exchange resin (BioRad). Reactions consumed less than 15% of available substrate.

[2] = system: sarcoidosis patients with chronic cutaneous lesions despite systemic therapy; experiment: Open label clinical study, Sarcoidosis Activity and Severity Index (SASI); assay type: in vivo, human; conditions: for SASI induration score, median (range): 43 areas with induration, baseline median 2 (0-4), p<0.005, scale 0 to 4
Experimental: An open label study of sarcoidosis patients with chronic cutaneous lesions despite systemic therapy was performed to determine the safety and efficacy of (+)-2-[1-(3-ethoxy-4-methoxyphenyl)-2-methanesulfonylethyl]-4-acetylaminoisoindolin-1,3-dione therapy. Patients were on a stable treatment regimen (corticosteroids, methotrexate (max 10 mg/week), azathioprine, hydroxychloroquine, cyclophosphamide, minocycline, doxycycline, chloroquine) for at least three months prior to study entry. Patients were assessed by a previously validated scoring system for cutaneous sarcoidosis: Sarcoidosis Activity and Severity Index (SASI). Individual scores were made for erythema, induration, and desquamation on a scale of 0 to 4. For an individual area of the body, the percentage of involvement for sarcoidosis lesions was scored on a scale from 0 to 7. After establishing a baseline SASI score, patients began treatment with (+)-2-[1-(3-ethoxy-4-methoxyphenyl)-2-methanesulfonylethyl]-4-acetylaminoisoindolin-1,3-dione 20 mg twice a day over the next 12 weeks. A SASI score was determined by the same investigator at baseline and weeks 4 and 12 of treatment.
Thirteen patients completed 16 weeks of study, including 12 weeks of active drug therapy. […] Among the 13 patients, there were 59 areas with one or more positive SASI feature during treatment. Among the 43 areas with induration, there was a significant drop in the SASI score from baseline (median 2 (0-4)) after 4 weeks (median 1 (0-3), p<0.005) and 12 weeks (median 1 (0-3), p<0.005) therapy.

CCOc1cc([C@@H](CS(C)(=O)=O)N2C(=O)c3cccc(NC(C)=O)c3C2=O)ccc1OC [(+)-2-[1-(3-ethoxy-4-methoxyphenyl)-2-methanesulfonylethyl]-4-acetylaminoisoindolin-1,3-dione]
IC50 [1]: 73.5 nM | change in SASI area of involvement during therapy ([2]; 20 mg twice a day, 12 weeks): no significant change | change in SASI desquamation during therapy ([2]; 20 mg twice a day, 12 weeks): no significant change | change in SASI erythema during therapy ([2]; 20 mg twice a day, 12 weeks): no significant change | tolerability ([2]; 20 mg twice a day, 12 weeks, 13 patients): well tolerated | discontinuation of drug treatment ([2]; 13 patients, 12 weeks of active drug therapy): No patient discontinued | SASI induration score, median (range) ([2]; after 4 weeks therapy, 20 mg twice a day): 1 (0-3) | SASI induration score, median (range) ([2]; after 12 weeks therapy, 20 mg twice a day): 1 (0-3) | patients with dose reduced by 50% (one for nausea, the other for feeling jittery) ([2]; of 13 patients, continued on the reduced dose): two | improvement in skin induration ([2]; within 4 weeks of institution of therapy): significant improvement
